We go through 4 molecules from patent publication US8017649B2, “Flavonoid compounds and uses thereof” (Howard Florey Institute of Experimental Physiology and …, priority 2005, dated 2011).

“Also recorded” adds a separate entry of the source.

For assay [1], the system named is rat aorta precontracted with PE. The experiment in a line: Direct relaxation of PE/U46619-precontracted rat aortic rings. It counts as cell-based. As to conditions: substance alone. Here is the method: Following testing of endothelial integrity, rings were repeatedly washed and re-equilibrated for 30 minutes before the addition of PE (10^−8−2×10^−7 M) and 9,11-dideoxy-9α, 11α-epoxymethano-prostaglandin F2α (U46619, 10^−9-10^−8 M) to produce an active force in the range of 40-60% of KPSS-induced contraction. The level of precontraction was matched between the various groups by adjusting the concentrations of PE and U46619. Cumulative concentration-response curves in the range 10^−8-10^−4 M were conducted for 3′,4′-dihydroxyflavonol, 3-hydroxyflavone-3-hemiadipate, 3′,4′-dihydroxy-3-hemiadipate, 3-hydroxyflavone-3-phosphate.
Experiments were conducted in the presence of an esterase, butyryl cholinesterase (BuCHE, 1000 U/L) for the hemiadipate derivates and a phosphatase 1000 U/L) in the case of the phosphate derivatives.
Following testing of endothelial integrity, rings were repeatedly washed and re-equilibrated for 30 minutes before the addition of PE (10^−8−2×10^−7 M) and 9,11-dideoxy-9α, 11α-epoxymethano-prostaglandin F2α (U46619, 10^−9-10^−7 M) to produce an active force in the range of 40-60% of KPSS-induced contraction. Cumulative concentration-response curves in the range 10^−7-10^−4 M were conducted for vehicle, 3′-hydroxyflavonol, F3HA, DiOHF3HA, F3P. Experiments were conducted in the presence and absence of 1000 U/L BuCHE to cleave the adipate in F3HA and DiOHF3HA. In experiments using F3P 1000 U/L phosphatase was used in some experiments to cleave the phosphate.

The subject of assay [2] is superoxide anions generated in rat aorta. Kind of assay: Superoxide anion production in rat isolated aortic segments (lucigenin chemiluminescence, NADPH). It counts as cell-based. As to conditions: for superoxide levels: highest concentration tested (0.1 mM). The method, then:
Superoxide anion production in rat isolated aortic segments was determined using lucigenin chemiluminescence. Aortic rings were prepared as described above and then placed in ice-cold Krebs-(N-[2-Hydroxyethyl]piperazine-N′-[2-ethanesulfonic acid] (HEPES buffer) (composition (mM); NaCl 99.0, KCl 4.7, KH2PO4 1.0, MgSO4·7H2O 1.2, D-glucose 11.0, NaHCO3 25.0, CaCl2·2H2O 2.5, Na-HEPES 20.0). Aortic rings were pre-incubated for 45 minutes at 37° C. with a pH 7.4, in Krebs-HEPES buffer containing diethylthiocarbamic acid (DETCA, 10^−3 M) to inactivate superoxide dismutase and β-nicotinamide adenine dinucleotide phosphate (NADPH, 10^−4 M) as a substrate for NADPH oxidase and either 3′,4′-dihydroxyflavonol (10^−4 M) as a positive control, vehicle, 3-hydroxyflavone-3-hemiadipate, 3′,4′-dihydroxy-3-hemiadipate, 3-hydroxyflavone-3-phosphate (10^−8-10^−4 M). Background photon emission was measured for 12 cycles in a 96-well Optiplate containing 0.3 ml per well of Krebs-HEPES buffer together with lucigenin (5×10^−5 M) and vehicle or flavonoid (10^−8-10^−4 M). Each cycle was counted every one minute. After background reading was completed the incubated aortic rings were transferred to the appropriate wells and photon emission was recounted as described above. The tissue was then placed in a 65° C. oven for 48 hours to allow superoxide production to be normalised to dry tissue weight.
The effects of vehicle, 3′,4′-dihydroxyflavone-3-hemiadipate (21) (DiOHF3HA, 10^−8 M-10^−4 M) and DiOHF (10^−4 M) in the presence and absence of Butyryl cholinesterase (BuCHE), 100, 300 and 1000 U/L) on the level of superoxide anions generated in rat isolated aortic segments in the presence of NADPH was expressed as a percentage of control. The method used was as described above except for the addition of the butyryl cholinesterase.
The effect of vehicle, 3-hydroxyflavone-3-phosphate (10^−8 to 10^−4 M) in the presence or absence of phosphatase (1000 U/L) on the level of superoxide anions generated in rat aorta in the presence of NADPH expressed as a percentage of control was determined as described above for the 3′,4′-dihydroxyflavone-3-hemiadipate.

Assay [3] concerns endothelium intact aortic rings. The experiment in a line: Ca2+-induced contraction of rat aortic rings in Ca2+-free high-K+ solution. It counts as cell-based. Here is the method: To determine the effect of flavonoids on responses to the influx of extracellular Ca^2+, contractile responses to exogenous application of Ca^2+ were examined in the presence of flavonoids in Ca^2+-free high-K^+ solution (60 mM, KPSS). Aortic rings were initially equilibrated at a resting tension of 1 g in normal Ca^2+-free PSS for 45 minutes. The bath medium was then replaced with Ca^2+-free KPSS for 45 minutes to determine a reference contraction to Ca^2+ (3×10^−3 M). Following a 30 minute re-equilibration period with Ca^2+-free PSS, the cumulative contractile responses to Ca^2+ (10^−5−3×10^−3 M) were determined in KPSS in the presence of a range of concentrations (10^−8-10^−4 M) of vehicle, 3′,4′-dihydroxyflavonol, 3-hydroxyflavone-3-hemiadipate, 3′,4′-dihydroxy-3-hemiadipate, 3-hydroxyflavone-3-phosphate. A 20 minute incubation period was allowed for the flavonoids before examining the responses to Ca^2+.
To determine the effect of flavonoids on responses to the influx of extracellular Ca^2+, contractile responses to exogenous application of Ca^2+ were examined in the presence of flavonoids in Ca^2+-free high-K^+ solution (60 mM, K+-PSS). Aortic rings were initially equilibrated at a resting tension of 1 g in Ca^2+-free PSS for 45 minutes. The bath medium was then replaced with Ca^2+-free K+-PSS for 45 minutes to determine a reference contraction to added Ca^2+ (3 mM). Following a 30 minute re-equilibration period with Ca^2+-free PSS, the cumulative contractile responses to Ca^2+ (10^−5−3×10^−3 M) were determined in K^+ PSS in the presence of vehicle (0.1% DMSO), or a range of concentrations (10^−7-10^−4 M) of 3′-hydroxyflavonol, F3HA, DiOHF3HA or F3P. A 20 minute incubation period was allowed for the flavonoids before examining the responses to Ca^2+. Experiments were conducted in the presence and absence of BuCHE (1000 U/L) to cleave the adipate in F3HA and DiOHF3HA. In experiments using F3P, phosphatase (1000 U/L) was used in some experiments to cleave the phosphate.

The test system of assay [4] is anaesthetised rats. The experiment in a line: Arterial pressure and heart rate in anaesthetised rats after intravenous injection. It counts as in vivo, rat. The note with it: intravenous, anaesthetised rats. Here is the method:
A unit dosage of an aqueous solution of 3-hydroxyflavone-3-hemiadipate (15) was administered to a group of male anesthetized Sprague Dawley rats intravenously and the blood pressure monitored over a period of time.
Male Sprague-Dawley rats (250-350 g) were anaesthetised with pentobarbitone sodium (60 mg kg^−1, ip). The trachea was isolated and cannulated with polyethylene tracheal tube (I.D. 2.0 mm), and the rat was allowed to breathe spontaneously.
The right carotid artery was cannulated and connected with a heparinised saline filled cannula (O.D. 0.75, I.D, 0.58 mm) and connected to a pressure transducer. Mean and phasic arterial pressure were continuously measured and recorded on a polygraph. The heart rate, was derived from the phasic arterial pressure using a tachometer.
DiOHF3HA ([…]) was injected intravenously, allowing at least 30 min between injections, and the peak changes in mean arterial pressure and heart rate measured. […] In a separate group of experiments ACh (0.3 mg/kg iv) and phenylephrine (PE, […]) were injected before and 30 minutes after DiOHF3HA (3 mg/kg iv), a time when arterial pressure and heart rate had returned to control levels. […]

For assay [5], the system named is endothelium intact aortic rings. The experiment in a line: Effect on ACh relaxation of precontracted rat aortic rings. It counts as cell-based. The note with it: substance alone. Here is the method:
(§1) After wash out and re-equilibration for 30 min, the aortic rings were then submaximally precontracted with PE and U46619, which were used to produce an active tension of 45-60% of the KPSS-induced maximum contraction. When investigating the effects of the flavonoids, flavonol, flavone-3-hemiadipate (F3HA), 3′, 4′-dihydroxyflavone, 3′,4′-dihydroxyflavonol, 3′,4′-dihydroxyflavone-3-hemiadipate (DiOHF3HA), and flavone-3-phosphate (F3P) on vasorelaxant responses, rings were incubated with one of the compounds for 20 mins before they were precontracted submaximally, followed by a cumulative-concentration response curve to ACh (100 nM-10 μM) or SNP ([…]). In experiments using F3P 1000U/L phosphatase was used in some experiments to cleave the phosphate. Some experiments were conducted in the presence and absence of butyryl cholinesterase (BuCHE, 1000 U/L) to cleave the adipate in DiOHF3HA and F3HA.

Assay [6] has as its system aortic rings. The experiment in a line: Effect on SNP relaxation of precontracted rat aortic rings. It counts as cell-based. As to conditions: substance alone. Here is the method:
as §1

Setting [7] is: substance alone, no added esterase/phosphatase, up to 10^−4 M, NADPH.

On to `O=c1cc(-c2ccc(O)c(O)c2)oc2ccccc12` [DiOHFne, 3′,4′-dihydroxyflavone, reference compound], for which the “direct relaxing effect on precontracted vessels” value in assay [1] is reported as “concentration-dependent relaxation of rat aorta which was weaker than the effect of DiOHF”. Moreover, the superoxide levels in assay [2] is given as 36±3 % of control. For the same molecule, in assay [2] (setting [7]), the “effect on superoxide generation” value was “concentration dependent decreases in superoxide levels”.
`O=C(O)CCCCC(=O)Oc1c(-c2ccccc2)oc2ccccc2c1=O` [F3HA, Flavone-3-hemiadipate]: the “effect on Ca^2+-induced contraction” value in assay [3] (alone, highest concentration 10^−4 M) is listed as “only inhibited contractile responses to increasing concentrations of extracellular calcium at the highest concentration tested”; in assay [3] (alone, highest concentration 10^−4 M, listed as flavone-3-hemiadipate) it was “some inhibitory effect”; in assay [3] (alone, lower concentrations 10^−8 to 10^−5 M), “did not effect Ca^2+ contraction”; in assay [3] (in the presence of BuCHE or phosphatase (1000 U/L)), “inhibit calcium-induced contraction”. The “change in mean arterial pressure (MAP)” value in assay [4] was “significant reduction in the blood pressure”. Also, the “effect on superoxide generation” value is listed as “concentration dependent increase in the inhibitory effect” in assay [2] (in the presence of cleaving enzyme (BuCHE for hemiadipates, phosphatase for phosphate, 1000 U/L)); “concentration-dependent inhibitory effect” in assay [2] (in the presence of cleaving enzyme (BuCHE for hemiadipates, phosphatase for phosphate, 1000 U/L), listed as flavone-3-hemiadipate); “no inhibitory effect on superoxide generation; also recorded: no antioxidant or vascular activity” in assay [2] (setting [7]); “no effect on the superoxide production” in assay [2] (substance alone, no added esterase/phosphatase, up to 10^−4 M, NADPH, listed as Flavone-3-hemiadipate); “no effect on the superoxide production at any concentration” in assay [2] (substance alone, no added esterase/phosphatase, up to 10^−4 M, NADPH, listed as flavone-3-hemiadipate).
As for `O=c1c(O)c(-c2ccccc2)oc2ccccc12` [Flavonol, reference compound], the “effect on Ca^2+-induced contraction” value in assay [3] (alone, over the concentration range tested) is reported as “concentration dependent decreases in calcium-induced contraction”. Further, the “effect on relaxant response to ACh” value in assay [5] is given as “did not affect”. For the same molecule, the superoxide levels in assay [2] was 36±3 % of control. The “effect on superoxide generation” value in assay [2] (setting [7]) was “concentration dependent decreases in superoxide levels”. For the same molecule, the “effect on relaxant response to SNP” value in assay [6] is recorded as “did not affect”.

B1: BuCHE: butyryl cholinesterase, esterase used to cleave the adipate (protein, UniProt P06276 29-602, looked up)
Cholinesterase: EDDIIIATKNGKVRGMNLTVFGGTVTAFLGIPYAQPPLGRLRFKKPQSLTKWSDIWNATKYANSCCQNIDQSFPGFHGSEMWNPNTDLSEDCLYLNVWIPAPKPKNATVLIWIYGGGFQTGTSSLHVYDGKFLARVERVIVVSMNYRVGALGFLALPGNPEAPGNMGLFDQQLALQWVQKNIAAFGGNPKSVTLFGESAGAASVSLHLLSPGSHSLFTRAILQSGSFNAPWAVTSLYEARNRTLNLAKLTGCSRENETEIIKCLRNKDPQEILLNEAFVVPYGTPLSVNFGPTVDGDFLTDMPDILLELGQFKKTQILVGVNKDEGTAFLVYGAPGFSKDNNSIITRKEFQEGLKIFFPGVSEFGKESILFHYTDWVDDQRPENYREALGDVVGDYNFICPALEFTKKFSEWGNNAFFYYFEHRSSKLPWPEWMGVMHGYEIEFVFGLPLERRDNYTKAEEILSRSIVKRWANFAKYGNPNETQNNSTSWPVFKSTEQKYLTLNTESTRIMTKLRAQQCRFWTSFFPKVLEMTGNIDEAEWEWKAGFHRWNNYMMDWKNQFNDYTSKKESCVGL
Turning to B1, in assay [1], the “direct relaxing effect on precontracted vessels” value is given as “no effect on PE precontracted vessels”.
